Assays:
calcium homeostasis = conditions: in animals and humans; cited from earlier work
[1] = test system: progesterone receptor (PR); conditions: U.S. Pat. No. 5,397,776; cited from earlier work
[2] = U.S. Pat. No. 5,397,776; cited from earlier work
vitamin D receptor = conditions: U.S. Pat. No. 5,397,776; cited from earlier work
progesterone receptor = target: T1, progesterone receptor (Homo sapiens, UniProt P06401); assay: Competitive binding of test compounds vs 3H-R5020 to the progesterone receptor (MCF-7 cytosol); conditions: for Total Binding (DPM) ± S.D.: 3H-R5020 (20 nM) bound; for Total Binding (DPM) ± S.D. / inhibition: competitor at 400× fold excess, 12-14 hours on ice; for binding to the PR (in words): compared with 20-oxopregnacalciferol where stated; for inhibition: of 3H-R5020 (20 nM) binding
T1 construct: The source of the progesterone receptor is the cytosolic fraction of MCF-7 cells (human breast cancer cell line); endogenous in cells; host or cells: MCF-7 cells (human breast adenocarcinoma), cytosolic fraction, 10 nM estradiol for 24 h before harvest
T1 sequence (P06401 1-933): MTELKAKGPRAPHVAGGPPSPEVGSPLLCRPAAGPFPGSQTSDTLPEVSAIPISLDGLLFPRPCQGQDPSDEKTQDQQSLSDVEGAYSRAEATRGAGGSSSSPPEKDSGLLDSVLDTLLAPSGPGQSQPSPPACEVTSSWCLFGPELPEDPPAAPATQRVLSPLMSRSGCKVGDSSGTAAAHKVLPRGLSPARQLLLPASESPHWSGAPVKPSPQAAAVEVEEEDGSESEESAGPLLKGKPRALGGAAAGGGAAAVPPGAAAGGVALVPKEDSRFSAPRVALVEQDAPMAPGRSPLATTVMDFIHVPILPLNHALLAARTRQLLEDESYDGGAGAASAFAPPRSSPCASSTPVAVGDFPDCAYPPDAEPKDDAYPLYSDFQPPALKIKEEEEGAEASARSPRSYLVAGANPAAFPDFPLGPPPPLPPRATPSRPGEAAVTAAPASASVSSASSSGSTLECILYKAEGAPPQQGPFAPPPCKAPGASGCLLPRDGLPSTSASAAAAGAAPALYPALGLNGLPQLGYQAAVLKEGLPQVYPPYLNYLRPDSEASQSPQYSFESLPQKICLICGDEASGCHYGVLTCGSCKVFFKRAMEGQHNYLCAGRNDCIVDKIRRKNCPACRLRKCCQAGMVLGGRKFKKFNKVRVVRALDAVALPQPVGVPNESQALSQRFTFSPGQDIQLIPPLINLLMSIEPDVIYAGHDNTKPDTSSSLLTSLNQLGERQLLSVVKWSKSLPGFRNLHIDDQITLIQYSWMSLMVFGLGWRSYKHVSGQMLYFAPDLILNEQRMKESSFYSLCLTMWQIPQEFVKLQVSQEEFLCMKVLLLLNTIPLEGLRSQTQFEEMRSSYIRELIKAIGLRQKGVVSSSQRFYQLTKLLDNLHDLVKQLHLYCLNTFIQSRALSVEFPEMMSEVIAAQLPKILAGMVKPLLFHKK
Experimental: Cell culture and extract preparation: Human Breast Adenocarcinoma cells (MCF-7 cells) extract is used as the progesterone receptor source. The cells were grown to confluency in phenol red-free DMEM with 10% calf serum. After replacing the medium, the cells were dosed with 10 nM Estradiol and incubated for an additional 24 hours to induce the expression of the progesterone receptor. The cells were washed with Hanks Balanced Salt Solution (HBSS: 5.0 mM KCl, 0.3 mM KH2 PO4, 138 mM NaCl, 4.0 mM NaHCO3, 0.3 mM Na2HPO4, 5.6 mM D-Glucose, 1.3 mM CaCl2 and 0.5 mM MgCl2.6H2O) and then incubated with Ca/Mg-free HBSS+1 mM EDTA for 5-10 minutes at 37° C. After harvesting, the cells were pelleted by centifugation for 5.0 minutes at 4.0° C. The cell pellet was then resuspended in TDG buffer (10 mM Tris-HCl, pH 7.4, 0.5 mM DTT and 50% Glycerol) and sonicated for 15 seconds. The cytosolic fraction was obtained by centrifugation at 50,000 RPM for 20 minutes in TLA 100.2 rotor. The supernatent (cytosol) was removed and stored on ice for use in the binding assay. The Cytosolic fraction was always prepared fresh. Binding Assay: The ability of the test compounds to compete for binding to the progesterone receptor was tested as follows: 1--The incubation mix consisted of the following: 100 μl 3H-R5020 (20 nM) 5 μl Ethanol or test compound in the ethanol providing a 400 fold excess of compound 100 μl MCF-7 Cell Extract 2--The mixture was incubated 12-14 hours on ice. 3--250 μl of 50% HAP slurry was added+3 mL of TDG buffer. 4--The samples are allowed to sit on ice for 30 minutes with vortexing every 10 minutes. 5--The HAP was pelleted by centrifugation at 1500 rpms for 3 minutes. 6--The pellet was washed three more times with TDG buffer. 7--The final pellet was resuspended in 1 ml Ethanol, vortexed and allowed to sit at room temperature for 30 minutes with vortexing every 10 minutes. 8--The samples were finally centrifuged at 2000 rpms. The supernatent was removed, mixed with counting fluid and the amount of radioactivity in each sample was determined by counting in a beta scintillation counter. 1--The source of the progesterone receptor is the cytosolic fraction of MCF-7 cells (human breast cancer cell line) which were dosed with Estradiol 24 hours prior to harvesting and processing. 2--The cytosolic fractions used in all the binding measurements were freshly prepared. No frozen extracts were used. 3--All competitive compounds were added at 400× fold excess of the labelled R5020.

progesterone = conditions: Teutsch et al, U.S. Pat. No. 4,386,085; cited from earlier work
glucocorticosteroid = conditions: Teutsch et al, U.S. Pat. No. 4,386,085; cited from earlier work
pregnancy = conditions: used in conjunction with synthetic prostaglandins; cited from earlier work

SMILES	Total Binding (DPM) ± S.D. (progesterone receptor)	inhibition (progesterone receptor)	binding to the PR (in words) (progesterone receptor)	further results
C=C1/C(=C\C=C2/CCC[C@]3(C)[C@@H]([C@H](C)/C=C/[C@H](C)C(C)(C)O)CC[C@@H]23)C[C@@H](O)C[C@@H]1O [1α,25-dihydroxyvitamin D2]	–	–	–	regulation of calcium homeostasis (in words) (calcium homeostasis): highly potent regulators of calcium homeostasis
C=C1/C(=C\C=C2/CCC[C@]3(C)[C@@H]([C@H](C)CCCC(C)(C)O)CC[C@@H]23)C[C@@H](O)C[C@@H]1O [1α,25-dihydroxyvitamin D3]	–	–	–	regulation of calcium homeostasis (in words) (calcium homeostasis): highly potent regulators of calcium homeostasis
C=C1/C(=C\C=C2/CCC[C@]3(C)[C@@H](C(C)=O)CC[C@@H]23)C[C@@H](O)C[C@@H]1O [1α-hydroxy-20-oxopregnacaliciferol]	–	–	–	binding to the PR (in words) [1]: prevents binding to the PR; calcemic activity (in words) [2]: None of the above three compounds had any calcemic activity; binding to the vitamin D receptor (in words) (vitamin D receptor): nor did they bind to the vitamin D receptor
CC(=O)[C@H]1CC[C@H]2/C(=C/C=C3C[C@@H](O)C[C@H](O)C3)CCC[C@]12C [19-nor-1α-hydroxy-20-oxopregnacalciferol]	–	–	–	binding to the PR (in words) [1]: prevents binding to the PR; calcemic activity (in words) [2]: None of the above three compounds had any calcemic activity; binding to the vitamin D receptor (in words) (vitamin D receptor): nor did they bind to the vitamin D receptor
CCC(=O)[C@@]1(C)CC[C@H]2[C@@H]3CCC4=CC(=O)CCC4=C3CC[C@@]21C [R5020, reference compound]	750 ± 231 DPM	–	–	–
CC#C[C@]1(O)CC[C@H]2[C@@H]3CCC4=CC(=O)CCC4=C3[C@@H](c3ccc(N(C)C)cc3)C[C@@]21C [RU 486]	–	–	–	antiprogesterone activity (in words) (progesterone): strong; antiglucocorticosteroid activity (in words) (glucocorticosteroid): strong; termination of pregnancy (in words) (pregnancy): terminates pregnancy

Further lines, with some results ahead:

Total Binding (DPM) ± S.D. (progesterone receptor)	inhibition (progesterone receptor)	SMILES	binding to the PR (in words) (progesterone receptor)	further results
4139 ± 62 DPM	13%	C[C@H](CO)[C@H]1CC[C@H]2/C(=C/C=C3CCCCC3)CCC[C@]12C [4a, 19-Nor-3-desoxy-22-hydroxy-homopregnacalciferol]	did also bind to the PR	–
2881 ± 152 DPM	40%	C[C@H](CO)[C@H]1CC[C@H]2/C(=C/C=C3CCC4(CC3)OCCO4)CCC[C@]12C [4b, 19-Nor-3-desoxy-2-ethylene ketal-22-hydroxyhomopregnacalciferol]	did also bind to the PR but to a lesser degree	–
3045 ± 90 DPM	36%	C[C@H](C=O)[C@H]1CC[C@H]2/C(=C/C=C3CCCCC3)CCC[C@]12C [5a, 19-Nor-3-desoxy-homopregnacalciferol 22-aldehyde]	did also bind to the PR	binding to the PR, times more than the 20-ketone 6a (progesterone receptor; compared with 20-ketone 6a): 1.5 times
2546 ± 120 DPM	47%	C[C@H](C=O)[C@H]1CC[C@H]2/C(=C/C=C3CCC4(CC3)OCCO4)CCC[C@]12C [5b, 19-Nor-3-desoxy-2-ethylene ketal-homopregnacalciferol 22-aldehyde]	did also bind to the PR but to a lesser degree	–
3616 ± 171 DPM	24%	CC(=O)[C@H]1CC[C@H]2/C(=C/C=C3CCCCC3)CCC[C@]12C [6a, 19-Nor-3-desoxy-20-oxopregnacalciferol]	–	binding to the PR, lesser degree than 20-oxopregnacalciferol (progesterone receptor; compared with previously synthesized 20-oxopregnacalciferol): 40%
2531 ± 165 DPM	47%	CC(=O)[C@H]1CC[C@H]2/C(=C/C=C3CCC4(CC3)OCCO4)CCC[C@]12C [6b, 19-Nor-3-desoxy-2-ethylene ketal-20-oxopregna-calciferol]	did also bind to the PR but to a lesser degree	–
2036 ± 133 DPM	58%	CC(=O)[C@H]1CC[C@H]2/C(=C/C=C3CCC(=O)CC3)CCC[C@]12C [6c, 19-Nor-3-desoxy-2,20-dioxopregnacalciferol]	almost the same binding activity to the PR	–
1950 ± 170 DPM	59%	C=C1CC[C@H](O)C/C1=C/C=C1\CCC[C@]2(C)[C@@H](C(C)=O)CC[C@@H]12 [20-oxopregnacalciferol, 20-oxo-pregnacalciferol]	–	binding to the PR (in words) [1]: did bind to the PR; calcemic activity (in words) [2]: None of the above three compounds had any calcemic activity; binding to the vitamin D receptor (in words) (vitamin D receptor): nor did they bind to the vitamin D receptor

Source: US5614512A, “20-Oxo-pregnacalciferol analogs with binding affinity to the progesterone receptor” (Wisconsin Alumni Research Foundation, priority 1995, dated 1997)
